Reference: ChEMBL document CHEMBL4321791, “TASK Channels Pharmacology: New Challenges in Drug Design” (J Med Chem, 2019)
Where a name gives a salt, the structure may show the parent alone. One block for each molecule: values may come before it.

What was measured:
[1] = target: T1, Potassium channel subfamily K member 9 (Homo sapiens, UniProt Q9NPC2); experiment: Inhibition of human TASK3 expressed in HEK293 cells by Ti+ flux assay; type: cell-based
[2] = target: T1, Potassium channel subfamily K member 9; experiment: Activation of human TASK3 expressed in human tsA201 cells at 1 uM by whole cell patch clamp assay relative to control; type: cell-based
[3] = target: T1, Potassium channel subfamily K member 9; experiment: Activation of human TASK3 expressed in Xenopus oocytes at 1 mM by whole cell patch clamp assay relative to control; type: cell-based
[4] = target: T2, Potassium channel subfamily K member 3 (Homo sapiens, UniProt O14649); experiment: Activation of human TASK1 expressed in African green monkey COS cells at 0.1 to 1 mM by whole cell patch clamp assay relative to control; type: cell-based
Target sequence in this assay (O14649 whole entry, looked up): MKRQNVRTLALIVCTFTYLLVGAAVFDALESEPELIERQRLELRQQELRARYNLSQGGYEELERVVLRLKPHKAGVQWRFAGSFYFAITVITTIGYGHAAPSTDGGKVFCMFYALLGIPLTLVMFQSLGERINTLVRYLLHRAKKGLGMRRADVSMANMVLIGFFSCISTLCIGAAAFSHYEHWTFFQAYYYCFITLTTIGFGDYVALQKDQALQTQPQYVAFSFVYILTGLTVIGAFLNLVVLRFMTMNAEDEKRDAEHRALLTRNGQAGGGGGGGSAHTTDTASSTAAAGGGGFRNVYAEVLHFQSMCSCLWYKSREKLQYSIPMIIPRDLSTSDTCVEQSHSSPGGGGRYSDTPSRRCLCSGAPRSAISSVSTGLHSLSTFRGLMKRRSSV

[5] = target: T2, Potassium channel subfamily K member 3; experiment: Activation of human TASK1 expressed in African green monkey COS cells at 1 mM by whole cell patch clamp assay relative to control; type: cell-based
Target sequence in this assay (O14649 whole entry, looked up): as above

[6] = target: T1, Potassium channel subfamily K member 9; experiment: Inhibition of human TASK3 expressed in Xenopus oocytes by whole cell voltage clamp assay; type: cell-based
[7] = target: T2, Potassium channel subfamily K member 3; experiment: Inhibition of human TASK1 expressed in Xenopus oocytes by whole cell voltage clamp assay; type: cell-based
Target sequence in this assay (O14649 whole entry): as the sequence (O14649 whole entry, looked up) above

[8] = target: Potassium channel subfamily K member 9 (Rattus norvegicus) (UniProt Q9ES08); experiment: Inhibition of rat TASK3 expressed in African green monkey COS7 cells at 100 uM by outside-out patches based electrophysiology assay relative to control; type: cell-based
[9] = target: T3, Potassium channel subfamily K member 3 (Rattus norvegicus, UniProt O54912); experiment: Inhibition of rat TASK1 expressed in African green monkey COS7 cells by outside-out patches based electrophysiology assay; type: cell-based
[10] = target: T4, Potassium channel subfamily K member 9 (Rattus norvegicus, UniProt Q9ES08); experiment: Inhibition of rat TASK3 expressed in African green monkey COS7 cells by outside-out patches based electrophysiology assay; type: cell-based
[11] = target: T2, Potassium channel subfamily K member 3; experiment: Inhibition of human TASK1 expressed in African green monkey COS cells at 0.6 mM by whole cell patch clamp assay relative to control; type: cell-based
Target sequence in this assay (O14649 whole entry, looked up): as above

[12] = target: T1, Potassium channel subfamily K member 9; conditions: 1 uM
Description: Inhibition of human TASK3 expressed in Xenopus oocytes at 1 uM by whole cell patch clamp assay relative to control

[13] = target: T1, Potassium channel subfamily K member 9; experiment: Inhibition of human TASK3 expressed in HEK293 by whole cell voltage clamp assay; type: cell-based
[14] = target: T2, Potassium channel subfamily K member 3; experiment: Inhibition of human TASK1 by whole cell voltage clamp assay
Target sequence in this assay (O14649 whole entry): as the sequence (O14649 whole entry, looked up) above

[15] = target: T4, Potassium channel subfamily K member 9; experiment: Inhibition of rat TASK3 expressed in (FRT) epithelial cells by chamber based electrophysiology assay; type: cell-based
[16] = target: T5, Potassium channel subfamily K member 5 (Homo sapiens, UniProt O95279); experiment: Inhibition of human TASK2 expressed in CHO cells by Inside-out macro-patches based electrophysiology assay; type: cell-based
T5 sequence (O95279 whole entry): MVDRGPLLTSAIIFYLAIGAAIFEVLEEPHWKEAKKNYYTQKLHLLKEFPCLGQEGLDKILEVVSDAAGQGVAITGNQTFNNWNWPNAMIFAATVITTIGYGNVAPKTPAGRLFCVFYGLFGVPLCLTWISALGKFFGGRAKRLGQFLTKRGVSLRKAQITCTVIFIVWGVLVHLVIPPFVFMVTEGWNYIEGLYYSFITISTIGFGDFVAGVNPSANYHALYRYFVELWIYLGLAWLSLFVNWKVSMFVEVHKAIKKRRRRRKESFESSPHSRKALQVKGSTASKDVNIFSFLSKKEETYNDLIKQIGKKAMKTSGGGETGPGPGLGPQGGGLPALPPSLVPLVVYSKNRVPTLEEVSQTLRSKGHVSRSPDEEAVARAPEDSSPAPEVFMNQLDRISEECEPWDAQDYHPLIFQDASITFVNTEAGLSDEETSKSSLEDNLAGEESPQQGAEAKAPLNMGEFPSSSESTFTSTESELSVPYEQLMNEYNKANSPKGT

[17] = target: T1, Potassium channel subfamily K member 9; experiment: Inhibition of human TASK3 expressed in CHO cells by Inside-out macro-patches based electrophysiology assay; type: cell-based
[18] = species: Homo sapiens; experiment: Selectivity index, ratio of IC50 for Kv1.5 channel (unknown origin) to IC50 for inhibition of human TASK1 expressed in Xenopus oocytes by whole cell voltage clamp assay; type: cell-based
[19] = target: T6, Potassium channel subfamily K member 17 (Homo sapiens, UniProt Q96T54); experiment: Inhibition of human TASK4 expressed in CHO cells by Inside-out macro-patches based electrophysiology assay; type: cell-based
T6 sequence (Q96T54 whole entry): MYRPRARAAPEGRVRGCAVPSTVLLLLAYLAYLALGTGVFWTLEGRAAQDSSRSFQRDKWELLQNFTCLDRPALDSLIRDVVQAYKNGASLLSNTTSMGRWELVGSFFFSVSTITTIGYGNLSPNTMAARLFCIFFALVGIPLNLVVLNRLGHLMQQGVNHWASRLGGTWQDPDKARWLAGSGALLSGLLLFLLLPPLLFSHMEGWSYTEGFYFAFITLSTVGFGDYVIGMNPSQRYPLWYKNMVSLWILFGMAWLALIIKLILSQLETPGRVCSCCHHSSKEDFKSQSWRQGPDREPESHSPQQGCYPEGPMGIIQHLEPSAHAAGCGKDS

[20] = target: T3, Potassium channel subfamily K member 3; experiment: Inhibition of rat TASK1 expressed in Xenopus oocytes by whole cell voltage clamp assay; type: cell-based
[21] = target: T4, Potassium channel subfamily K member 9; experiment: Inhibition of rat TASK3 expressed in Xenopus oocytes by whole cell voltage clamp assay; type: cell-based
[22] = target: T2, Potassium channel subfamily K member 3; experiment: Activation of human TASK1 expressed in African green monkey COS cells at 2 mM by whole cell patch clamp assay relative to control; type: cell-based
Target sequence in this assay (O14649 whole entry, looked up): as the sequence (O14649 whole entry, looked up) above

[23] = target: T1, Potassium channel subfamily K member 9; experiment: Inhibition of human TASK3 expressed in CHOK1 cells by Ti+ flux assay; type: cell-based
[24] = target: Potassium channel subfamily K member 9 (Rattus norvegicus) (UniProt Q9ES08); experiment: Inhibition of rat TASK3 expressed in African green monkey COS7 cells at 1 mM by outside-out patches based electrophysiology assay relative to control; type: cell-based
[25] = target: T2, Potassium channel subfamily K member 3; experiment: Inhibition of human TASK1 expressed in African green monkey COS7 cells by whole cell patch clamp assay; type: cell-based
Target sequence in this assay (O14649 whole entry): as the sequence (O14649 whole entry, looked up) above

[26] = target: T2, Potassium channel subfamily K member 3; experiment: Inhibition of human TASK1 expressed in African green monkey COS cells by whole cell patch clamp assay; type: cell-based
Target sequence in this assay (O14649 whole entry): as the sequence (O14649 whole entry, looked up) above

T1 sequence (Q9NPC2 whole entry): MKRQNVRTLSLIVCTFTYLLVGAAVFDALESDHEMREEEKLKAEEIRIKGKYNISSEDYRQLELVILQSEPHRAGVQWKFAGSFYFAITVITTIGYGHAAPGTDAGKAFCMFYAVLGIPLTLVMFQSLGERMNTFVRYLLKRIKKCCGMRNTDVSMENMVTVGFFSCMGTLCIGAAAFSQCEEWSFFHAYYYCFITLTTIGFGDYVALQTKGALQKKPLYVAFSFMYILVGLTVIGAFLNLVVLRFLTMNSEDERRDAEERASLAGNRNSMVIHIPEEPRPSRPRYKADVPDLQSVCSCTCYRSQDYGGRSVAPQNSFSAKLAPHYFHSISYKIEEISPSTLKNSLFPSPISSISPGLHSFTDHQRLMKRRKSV
Potassium channel subfamily K member 9 (Rattus norvegicus), sequence (Q9ES08 whole entry): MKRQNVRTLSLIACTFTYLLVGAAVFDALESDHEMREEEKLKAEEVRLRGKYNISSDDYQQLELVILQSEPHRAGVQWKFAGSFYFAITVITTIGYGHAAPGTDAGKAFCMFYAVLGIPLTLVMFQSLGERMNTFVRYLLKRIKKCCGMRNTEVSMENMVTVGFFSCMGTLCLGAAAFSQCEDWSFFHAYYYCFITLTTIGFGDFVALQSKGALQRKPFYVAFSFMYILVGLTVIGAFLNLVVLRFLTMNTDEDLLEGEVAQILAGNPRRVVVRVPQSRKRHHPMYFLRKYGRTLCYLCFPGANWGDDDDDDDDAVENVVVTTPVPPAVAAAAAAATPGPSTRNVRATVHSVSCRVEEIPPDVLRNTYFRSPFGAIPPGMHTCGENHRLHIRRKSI
T4 sequence (Q9ES08 whole entry): as above
T3 sequence (O54912 whole entry): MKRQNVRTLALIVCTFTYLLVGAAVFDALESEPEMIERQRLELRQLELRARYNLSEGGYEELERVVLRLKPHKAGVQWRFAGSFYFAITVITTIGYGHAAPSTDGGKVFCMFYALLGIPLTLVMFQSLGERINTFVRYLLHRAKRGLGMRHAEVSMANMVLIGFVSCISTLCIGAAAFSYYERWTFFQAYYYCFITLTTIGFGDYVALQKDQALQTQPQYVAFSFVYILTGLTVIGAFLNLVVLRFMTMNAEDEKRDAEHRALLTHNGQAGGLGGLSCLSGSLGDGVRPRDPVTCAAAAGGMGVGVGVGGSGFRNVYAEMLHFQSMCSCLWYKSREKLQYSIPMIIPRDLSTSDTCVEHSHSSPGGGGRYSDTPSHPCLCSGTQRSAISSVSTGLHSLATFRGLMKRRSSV

SMILES: Ic1ccccc1CN[C@@H]1C2CCN(CC2)[C@@H]1C(c1ccccc1)c1ccccc1
- IC50 [1]: 45.5 µM

SMILES: CCOC(=O)N1CCC(=C2c3ccc(Cl)cc3CCc3cccnc32)CC1 [LORATADINE]
- IC50 ([1]; hek293): 63.4 µM

SMILES: CC[C@H](C)C(=O)O[C@H]1CCC=C2C=C[C@H](C)[C@H](CC[C@@H]3C[C@@H](O)CC(=O)O3)[C@H]21 [MEVASTATIN]
- IC50 [1]: 159 µM

SMILES: FC(F)(F)C(Cl)Br (stereo not given)
- Activity [3]: 65.6%
- Activity [4]: > 60%
- Activity [5]: 60%

SMILES: [Cl-].[Cs+]
- Activity [3]: 7.7%

SMILES: COc1cc2c(cc1OC)-c1c(C#N)c(-c3ccccc3)c(C)n1CC2
- IC50 [6]: 189 µM

SMILES: CC[C@@H]1/C=C/C=C/C[C@H](C)[C@@H](O)[C@](C)(O)C(=O)[C@H](C)[C@@H](O)[C@H](C)C(=O)[C@H](C)[C@@H](O)[C@H](C)/C=C/C(=O)O[C@H]2[C@@H](C)[C@@H](CC1)O[C@@]1(CC[C@@H](C)[C@@H](C[C@H](C)O)O1)[C@@H]2C
- IC50 [1]: 47.7 µM

SMILES: C=C[C@H]1CN2CC[C@H]1C[C@@H]2[C@@H](O)c1ccnc2ccc(OC)cc12
- inhibition [8]: 37%

SMILES: CN1CCN(C2Cc3ccccc3Sc3ccc(Cl)cc32)CC1 (racemic)
- IC50 [1]: 73.8 µM

SMILES: O=C(NCc1ccccc1-c1ccccc1C(=O)NCCc1ccccn1)OCc1ccccc1
- IC50 [7]: 0.2 µM

SMILES: CCOCC
- inhibition [11]: 40%

SMILES: Cc1cccc(C)c1NC(=O)C1CCCCN1C (stereo not given) [MEPIVACAINE]
- IC50 [7]: 709 µM

SMILES: CC(C1CC2CCC1C2)n1c(S)nnc1-c1ccco1 (stereo not given)
- IC50 [13]: 0.413 µM
- IC50 [14]: 3.2 µM

SMILES: CN1CCN(C2Cc3ccccc3Sc3ccc(Cl)cc32)CC1 (stereo not given) [CLOROTEPINE]
- IC50 ([1]; hek293): 73.8 µM

SMILES: COc1ccc(-n2nc(Sc3ccc(C)cc3)c(C)c(C#N)c2=O)cc1
- IC50 [7]: 0.35 µM

SMILES: CCc1ccc(S(=O)(=O)NC2c3cc(NC(=O)c4cccc(OC)c4)ccc3CC2O)cc1 (stereo not given)
- IC50 [7]: 1.05 µM

SMILES: CCOC(=O)c1c(-c2cccc(N)c2)c(C)n2c1-c1cc(OC)c(OC)cc1CC2
- IC50 [6]: 268 µM

SMILES: COc1ccc(CC(=O)NCc2ccccc2-c2ccccc2C(=O)NCc2ccc(F)cc2F)cc1
- IC50 [15]: 0.036 µM
- IC50 [6]: 0.318 µM
- IC50 [7]: 0.035 µM
- IC50 [16]: 12 µM
- IC50 [17]: 0.07 µM
- Ratio IC50 [18]: 68
- IC50 [19]: 8.1 µM

SMILES: CCCC(=O)C1CCN(c2ncnc3c2CN(C(=O)c2ccc(-c4ccccc4)cc2)CC3)CC1
- IC50 [15]: 0.01 µM

SMILES: CN(C)c1cc2c(Nc3ccc4c(cnn4Cc4ccccc4)c3)ncnc2cn1 [GW282974X]
- IC50 [1]: 50.1 µM

SMILES: CCN1CC(CCN2CCOCC2)C(c2ccccc2)(c2ccccc2)C1=O (stereo not given) [DOXAPRAM]
- IC50 [15]: 16 µM
- IC50 [20]: 0.41 µM
- IC50 [21]: 37 µM

SMILES: FC(F)OC(Cl)C(F)(F)F (stereo not given)
- Activity [22]: 25%

SMILES: O=C(NCCNc1ccc([N+](=O)[O-])cc1C(F)(F)F)c1ccccc1
- fold change (FC) [23]: 6

SMILES: COc1ccc(CC(=O)NCc2ccccc2-c2ccccc2C(=O)NCCc2cccnc2)cc1
- IC50 [7]: 0.6 µM

SMILES: CCCCC/C=C\C/C=C\C/C=C\C/C=C\CCCC(=O)NCCO [ANANDAMIDE]
- IC50 [25]: 3 µM

SMILES: CCCCC/C=C\C/C=C\C/C=C\C/C=C\CCCC(=O)N[C@H](C)CO [METHANANDAMIDE]
- IC50 [26]: 0.1 µM

Second part, the molecule after the results:

- Activity [2]: 30%
SMILES: CN(C/C=C/C#CC(C)(C)C)Cc1cccc2ccccc12

- IC50 [7]: 51 µM
SMILES: CCCN1CCCC[C@@H]1C(=O)Nc1c(C)cccc1C

- IC50 [7]: 96.7 µM
SMILES: CCOC(=O)c1c(-c2cccs2)c(C)n2c1-c1cc(OC)c(OC)cc1CC2

- IC50 [7]: 668 µM
SMILES: CCCCNc1ccc(C(=O)OCCN(C)C)cc1 [TETRACAINE]

- IC50 [7]: 41 µM
- inhibition [8]: 56%
- IC50 [9]: 41 to 68 µM
- IC50 [10]: 100 µM
SMILES: CCCCN1CCCCC1C(=O)Nc1c(C)cccc1C (stereo not given) [BUPIVACAINE]

- inhibition [12]: 6.1%
SMILES: CC[N+](CC)(CC)CC

- IC50 [6]: 0.95 µM
- IC50 [7]: 0.222 µM
- IC50 [14]: 0.22 µM
SMILES: CCCCS(=O)(=O)Nc1ccccc1C(=O)NC(CC)c1ccc(OC)nc1 (stereo not given)

- IC50 [7]: 39 µM
SMILES: CCCN(CC)C(CC)C(=O)Nc1c(C)cccc1C (stereo not given) [ETIDOCAINE]

- IC50 [7]: 83.5 µM
SMILES: CCOC(=O)c1cc(C)n2c1-c1cc(OC)c(OC)cc1CC2

- IC50 [7]: 53 µM
SMILES: CCCN1CCCC[C@H]1C(=O)Nc1c(C)cccc1C [ROPIVACAINE]

- IC50 ([1]; hek293): 24.6 µM
SMILES: COCC(=O)O[C@]1(CCN(C)CCCc2nc3ccccc3[nH]2)CCc2cc(F)ccc2[C@@H]1C(C)C [MIBEFRADIL DIHYDROCHLORIDE]

- IC50 [7]: 222 µM
- inhibition [24]: 62%
SMILES: CCN(CC)CC(=O)Nc1c(C)cccc1C [LIDOCAINE]
